Data reported in PMC11275795 (bioRxiv, 2024).

Target: FIGNL1∆N (Homo sapiens, UniProt Q6PIW4)
Conditions: activity enhanced by RAD51 or its N-terminal peptide

FIGNL1∆N, sequence (Q6PIW4 287-674): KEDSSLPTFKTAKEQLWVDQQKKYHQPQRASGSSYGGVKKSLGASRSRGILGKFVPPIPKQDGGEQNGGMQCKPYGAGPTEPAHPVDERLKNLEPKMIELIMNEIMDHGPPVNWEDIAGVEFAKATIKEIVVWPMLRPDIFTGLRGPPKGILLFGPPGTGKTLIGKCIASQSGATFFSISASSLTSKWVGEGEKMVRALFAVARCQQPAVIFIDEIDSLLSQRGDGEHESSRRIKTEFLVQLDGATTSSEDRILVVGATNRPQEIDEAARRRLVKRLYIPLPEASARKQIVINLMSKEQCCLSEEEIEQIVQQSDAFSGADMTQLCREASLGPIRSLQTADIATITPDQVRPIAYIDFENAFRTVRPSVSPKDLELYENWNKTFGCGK

Nc1ncnc2c1ncn2[C@@H]1O[C@H](COP(=O)(O)OP(=O)(O)OP(=O)(O)O)[C@@H](O)[C@H]1O [ATP]
ATPase assay: The ATPase activity of FIGNL1∆N is enhanced in the presence of RAD51
